This series can be described thus: Release test of ganciclovir from scleral plug in phosphate buffered solution. The format is physicochemical. As to conditions: phosphate buffered solution (0.1 M, pH 7.4). The protocol: The scleral plug produced in Example 1 was shaken in a phosphate buffered solution (0.1 M, pH 7.4) to release a drug (ganciclovir). The release medium was collected at predetermined intervals and replaced with a new buffer. These operations were repeated. Absorbance of the release medium at 254 nm was measured with a spectrophotometer, and an amount of the released drug was determined.

For the molecule `Nc1nc(O)c2ncn(COC(CO)CO)c2n1` [ganciclovir], the “decomposition of drug during the release test” value is recorded as “does not decompose”.

Source of the values: patent US6488938B1, “Polylactic acid scleral plug” (Santen Pharmaceutical Co., Ltd., priority 1997, dated 2002).
